Experimental data reported in patent US7550438B2, “Methods for production of growth-promoting proteins and peptides for kidney epithelial cells” (The University of Chicago, priority 1997, dated 2009).
“And” between values parts separate entries of the source, which are not always exact repeats. Equal values may be shown once. “Also recorded” adds a separate entry of the source. Read-outs that look alike come from different tables or passages of the source. No end group written: not given here.

Columns and labels:
BSC-1 cells [1] = test: Inhibition of WGF and WGF-derived peptide mitogenesis in BSC-1 cells; type: cell-based, African green monkey; details: for effect of pentamer on growth stimulation by hexamer YPQGNH: pentamer added to culture medium, hexamer added at the same time or afterwards
Description: In these studies the pentamers, PQGNH (SEQ ID NO: 36) or YPQGN (SEQ ID NO: 3) were synthesized, purified by HPLC and then assayed for growth-promoting activity. […] Because the pentamers are not mitogenic, when they bind to the site, growth is not observed. After pentamers are bound to the site, the pentamers appear to prevent the hexapeptide from gaining access to the membrane.
Transforming growth factor (TGF)-β2 is an autocrine growth inhibitor secreted by BSC-1 cells that limits proliferation in culture. Exogenous TGF-β2 was added to the culture medium to determine its capacity to inhibit the growth-promoting effect of 14-Ser. TGF-β2 at a concentration of 1 ng/ml was sufficient to abolish the 25% stimulation of growth induced by 14-Ser. At a TGF-β2 concentration of 2 ng/ml, growth was inhibited by 30% in the presence or absence of 14-Ser; at 10 ng/ml, inhibition was 60%.
Because TGF-β2 inhibits proliferation induced by diverse mitogens, a more specific inhibitor was sought. […] Cells were preincubated for 30 minutes with the pentapeptide YPQGN (SEQ ID NO: 3). The culture medium was then aspirated, the monolayer was rinsed, fresh medium was added, and the number of cells counted 4 days later. Preincubation of cells with YPQGN (SEQ ID NO: 3) inhibited the mitogenic effect of the 6-amino acid peptide.

[2] = tested on: monkey kidney epithelial cells of the BSC-1 line; test: Growth-promoting (mitogenic) activity: number of cells in BSC-1 cultures counted four days after addition; type: cell-based, African green monkey; details: for mitogenic activity on BSC-1 cells (in words): peptide 0.5 to 20 μg/ml; for mitogenic activity on BSC-1 cells (in words) / stimulation of growth in the presence of the 14-Ser peptide: four days; for EC50: read-out: Growth-Stimulation K½; for stimulation of growth (increase in cell number compared to control at four days): agent alone at maximal mitogenic concentration (14-Ser 0.5 μg/ml; EGF, IGF-I 50 ng/ml; acidic FGF 100 pg/ml; basic FGF 1,000 pg/ml; vasopressin 75 pg/ml; K 10.4 mM; Na 180 mM); for stimulation of growth in the presence of the 14-Ser peptide: mitogenic signal at maximal concentration plus 14-Ser peptide 0.5 μg/ml
Method: For the assay, cells were detached from the dish with a solution of trypsin and an aliquot was counted in a hemocytometer.
Nontransformed monkey kidney epithelial cells of the BSC-1 line were grown to confluence in Dulbecco's modified Eagle's medium containing 1% calf serum and […] in 55-mm culture dishes at 38° C. in a CO2 incubator. When cells achieved a density of about 10^6 per dish, the spent medium was removed and replaced with fresh medium containing 0.5% calf serum and the 14-amino acid peptide (0.5 μg/ml). Additions of each of the mitogenic signals at maximal concentration were made to the culture medium. Four days later the number of cells in each culture was counted in a hemocytometer. Values obtained were the mean of 3 separate cultures.
Nontransformed monkey kidney epithelial cells of the BSC-1 line were grown to confluence in Dulbecco's modified Eagle's medium containing 1% calf serum and 1.6 μM biotin at 38° C. in a CO2 incubator. When cells achieved a density of about 10^6 per dish, the spent medium was removed and replaced with fresh medium containing 0.5% calf serum and different amounts of the two peptides. Four days later the number of cells in each culture was counted. Each value is the mean of 3 separate cultures.
To delineate the sequence of the smallest peptide that could stimulate renal cell growth, synthetic peptides of different lengths were prepared (see below), and purified by reversed-phase HPLC on a C18 column.
The peptide of interest was then purified on a reversed-phase C18 column HPLC as described herein using a gradient of 1-80% acetonitrile in 0.1% trifluroacetic acid (TFA). The purified peptide was then lyophilized to remove the acetonitrile and TFA and the lyophilized powder was weighed, dissolved in buffer and added to the culture medium to measure its effect on the growth of monkey kidney epithelial cells as described herein. […] A value termed the K1/2, was used.

[3] = tested on: rats with mercuric chloride-induced acute renal failure; test: Mercuric chloride-induced acute renal failure in rats: survival and renal function; type: in vivo, rat
Description: Nephrotoxic and ischemic acute renal failure (ARF) induced experimentally in rats have long been used to model this syndrome in humans. […] Male rats weighed 200-225 gm at the start of the experiment. This dose was used because preliminary experiments indicated it results in survival of 25-50% of the animals 7 days later. […] An increase in serum creatinine concentration signals a decline in renal function because the injured kidney is unable to excrete endogenous creatinine in the urine so it accumulates in the blood.
The synthetic peptide […] (14-Ser) (SEQ ID NO: 15) (dissolved in sterile 0.01% bovine serum albumin in phosphate-buffered saline) was injected subcutaneously into rats to determine its effect on survival, recovery of renal fucntion, and stimulation of DNA synthesis. Multiple different peptides were studied including 14-Ser, […] (14-mer) (SEQ ID NO: 39), […] (16-mer) (SEQ ID NO: 4) […] (11-mer) (SEQ ID NO: 6), and […] (11-mer) (SEQ ID NO: 41). Different concentrations and times of administration were tested and compared.
Acute tubular necrosis was induced in 44 rats by the subcutaneous (s.c.) injection of mercuric chloride, and a single dose of 14-ser was administered s.c. 1 hour afterwards. Different amounts of the peptide were given to assesses its capacity to affect the outcome. Survival 7 days later was about twice as high in animals given 100-150 μg of peptide (63%) than in rats given 0-75 μg peptide (29%).
To determine the effect of the peptide on survival and recovery of renal function, acute tubular necrosis was induced in 59 rats; 29 received 14-Ser (100 μg/rat) and 30 received an equal volume of the vehicle s.c. 1 hour after administration of mercuric chloride. Enhanced survival (top panel) and renal functional recovery (bottom panel) of rats give a WGF-derived peptide after mercuric chloride-induced acute tubular necrosis are shown in FIG. 2A and FIG. 2B. Mercuric chloride was injected subcutaneously into each of the 59 rats, and 1 hour later 100 μg of WGF peptide (14-Ser) (n=29 rats) or the vehicle […] was given. Survival was greater in rats given the peptide than in animals receiving the vehicle as early as day 3 after administration of mercuric chloride. Blood was obtained from the tail vein on the days indicated, and serum creatinine concentration was measured. […] On days 2, 3 and 4, the lower creatinine concentration in peptide-treated rats indicates accelerated recovery of kidney function.
Experimental ARF was induced in rats by subcutaneous injection of mercuric chloride. The synthetic peptide […] […] In one experiment a total of 17 rats were injected with a dose of mercuric chloride shown to induce ARF. The different amounts of the peptide (known to stimulate growth of kidney cells in culture) were injected into the animals to assess capacity to improve the outcome. […] In contrast, two of three rats given 100 micrograms of peptide were alive, as were five of six given 200 micrograms. In summary, none of eight rats (0%) given up to 50 micrograms of peptide survived, whereas seven of nine (78%) given 100-200 micrograms did. Thus, the 11-mer WGF peptide improves survival in nephrotoxic ARF.
[…] Four days later, 63% of rats given the 14-Ser peptide were alive compared to 25% of animals receiving the vehicle (chi squared, P-0.0499); 50% of rats receiving EGF were alive (chi squared, P=N.S.). On day 5, 50% of rats given EGF were alive, compared to 12.5% of animals given the vehicle (chi squared, P=0.0436). […] These observations indicate that the 14-Ser peptide and EGF given after renal injury are similar in their ability to improve survival from the ARF syndrome.

BSC-1 cells [4] = test: Time of contact with cells required to commit them to accelerated growth (washout, count at four days); type: cell-based, African green monkey; details: for exposure time sufficient for maximal growth stimulation (commitment time): peptide then washed off, cells counted four days later
Method: Confluent monolayers of BSC-1 cells are prepared as herein and exposed to the 14-Ser peptide (0.5 μg/ml) for different amounts of time (0 to 30 minutes). At the end of the defined exposure period, culture medium containing the mitogen was aspirated, the monolayer was rinsed to remove non-adherent peptide, and fresh medium was added. Four days later the number of cells in the culture was counted.
In these experiments a solution containing the peptide of interest was added to the cell monolayer; culture medium was then aspirated at a specified time thereafter. Then fresh medium without the peptide was added and the number of cells was counted four days later.

[5] = peptide alone, BSC-1 cells, 4 days in culture

Pentosan polysulfate [reference compound]
effect on activity of WGF (BSC-1 cells [1]): blocked

QPYPQG
mitogenic activity on BSC-1 cells (in words) [2]: not mitogenic

FPEGNH
EC50 [2, 5]: 2720 nM

YPQGNHEASYG
EC50 ([2]; + heparin (1 μg/ml)): 166 nM | EC50 [2, 5]: 166 nM

AQPYPQGNHEATSSSF
EC50 [2, 5]: 218 nM

[Cl-].[K+] [potassium chloride, reference compound]
stimulation of growth (increase in cell number compared to control at four days) [2]: 18% | stimulation of growth in the presence of the 14-Ser peptide [2]: 35%

WAVGHLM [WAVGHLM-amide, reference compound]
EC50 [2, 5]: ~10000 nM

AQPYPEGNHEA
EC50 [2, 5]: 206 nM | rats dead three days later ([3]; 50 micrograms s.c. two hours after mercuric chloride): three of three | survival three days later ([3]; 100-200 micrograms of peptide, nine rats): 78% | rats alive three days later ([3]; 100 micrograms s.c. two hours after mercuric chloride): two of three | rats alive three days later ([3]; 200 micrograms s.c. two hours after mercuric chloride): five of six | survival three days later ([3]; up to 50 micrograms of peptide (incl. saline alone), eight rats): 0%

PQGNH
mitogenic activity on BSC-1 cells (in words) [2]: Neither was mitogenic; also recorded: do not alter growth | effect of pentamer on growth stimulation by hexamer YPQGNH (BSC-1 cells [1]): blocked

insulin-like growth factor-I [IFG-I, reference compound]
stimulation of growth (increase in cell number compared to control at four days) [2]: 20% | stimulation of growth in the presence of the 14-Ser peptide [2]: 38%

NC(=O)CC[C@@H]1NC(=O)[C@H](Cc2ccccc2)NC(=O)[C@H](Cc2ccc(O)cc2)NC(=O)[C@@H](N)CSSC[C@@H](C(=O)N2CCC[C@H]2C(=O)N[C@@H](CCCN=C(N)N)C(=O)NCC(N)=O)NC(=O)[C@H](CC(N)=O)NC1=O [vasopressin, reference compound]
stimulation of growth (increase in cell number compared to control at four days) [2]: 14% | stimulation of growth in the presence of the 14-Ser peptide [2]: 36% | exposure time sufficient for maximal growth stimulation (commitment time) (BSC-1 cells [4]): 2 min

[Cl-].[Na+] [sodium chloride, reference compound]
stimulation of growth (increase in cell number compared to control at four days) [2]: 25% | stimulation of growth in the presence of the 14-Ser peptide [2]: 41%

YPEGDH
EC50 [2, 5]: 11000 nM

YPEGNH
EC50 [2, 5]: 301 nM | exposure time for maximal mitogenic effect after keratan sulfate pretreatment (BSC-1 cells [4]; cells exposed to keratan sulfate 2 μg/ml for 5 minutes before peptide): 1.5 min | exposure time sufficient for maximal growth stimulation (commitment time) (BSC-1 cells [4]): 3 min

AQPYPQGNHEAQPYPQGNHEAQPYPQGNHEAQPYPQGNHE
EC50 [2, 5]: 7 nM | exposure time sufficient for maximal growth stimulation (commitment time) (BSC-1 cells [4]): behaved similarly

YPQGN
mitogenic activity on BSC-1 cells (in words) [2]: Neither was mitogenic; also recorded: do not alter growth | effect of preincubation on mitogenic effect of partially-purified Wound Growth Factor (BSC-1 cells [1]): completely abolished | effect of preincubation on mitogenic effect of the 6-amino acid peptide YPQGNH (BSC-1 cells [1]; cells preincubated 30 minutes, rinsed, count 4 days later): inhibited | effect of pentamer on growth stimulation by hexamer YPQGNH (BSC-1 cells [1]): blocked | effect of preincubation on growth-promoting effect of the 14-Ser peptide (BSC-1 cells [1]; preincubation for 10 or 30 minutes): completely blocked

AQPYPQGNHEAAYG
EC50 ([2]; + keratan sulfate (2 μg/ml for 5 minutes prior to peptide, b158; 10 μg/ml)): 54 nM | EC50 [2, 5]: 199 nM

YPQGNH [YPQGNH-amide]
EC50 [2, 5]: 8850 nM

AQPYPEGNHEASYG
EC50 [2, 5]: 128 nM

YPEGKH
EC50 [2, 5]: 14100 nM

Nc1ncnc2c1ncn2[C@@H]1O[C@H](COP(=O)(O)O)[C@@H](O)[C@H]1O [adenosine monophosphate, reference compound]
commitment time (BSC-1 cells [4]): 14 h

acidic fibroblast growth factor [acidic FGF, reference compound]
concentration equivalent in mitogenic potency to partially-purified WGF [2]: 0.02 ng/mL | effect of keratan sulfate on mitogenic activity [2]: no effect | stimulation of growth (increase in cell number compared to control at four days) [2]: 17% | effect of heparin on mitogenic activity ([2]; heparin added to BSC-1 cells with the factor): inhibits | combined mitogenic effect with WGF (additivity) ([2]; maximal concentrations, 11-mer with wound conditioned buffer): additive | stimulation of growth in the presence of the 14-Ser peptide [2]: 44%

YPRGNH [reference compound]
stimulation of growth (increase in cell number compared to control at four days) [2]: 10% | mitogenic activity on BSC-1 cells (in words) [2]: not mitogenic to the same extent

YPQGNH [NH2-tyrosine-proline-glutamine-glycine-asparagine-histidine-COOH]
EC50 [2, 5]: 352 nM and 332 nM

MAPS peptide: 11-mer AQPYPQGNHEA linked to a branched polylysine core, four branches each ligated to one 11-mer molecule (also: four copies linked to a branched polylysine core (MAPS))
mitogenic activity on BSC-1 cells (in words) [2]: stimulated DNA synthesis and proliferation

B1: TGF-β2: autocrine growth inhibitor secreted by BSC-1 cells (protein, UniProt P61811 303-414, looked up)
Transforming growth factor …: ALDAAYCFRNVQDNCCLRPLYIDFKRDLGWKWIHEPKGYNANFCAGACPYLWSSDTQHSRVLSLYNTINPEASASPCCVSQDLEPLTILYYIGKTPKIEQLSNMIVKSCKCS
effect on the 25% stimulation of growth induced by 14-Ser (BSC-1 cells [1]; TGF-β2 1 ng/ml): abolish | growth inhibition (BSC-1 cells [1]; TGF-β2 2 ng/ml, in the presence or absence of 14-Ser): 30% | growth inhibition (BSC-1 cells [1]; TGF-β2 10 ng/ml): 60%
